# Test system: NOMO1
# Assay: cell viability relative to DMSO control; higher = less cytotoxic
# Conditions: 48 h
# Procedure, shortened: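 Viability, reported as a per-plate percentage of DMSO wells with cell-free wells as background, came from CellTiter-Glo One luminescence. Reading took place after 48 h at 37°C. Before that, NOMO1 or SEM (500 cells/well) or P12-Ichikawa (1000 cells/well) leukemia cells, adapted for at least four passages in each medium, were seeded in 1536-well plates (5 μl) and pin-dosed with library compounds in DMSO, 47 μM to 0.79 nM over 11 threefold points.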
# [1] = HPLM + 10% dialyzed FBS, 0.000781 µM
# [2] = HPLM + 10% dialyzed FBS, 0.00234 µM
# [3] = HPLM + 10% dialyzed FBS, 0.00702 µM
# [4] = HPLM + 10% dialyzed FBS, 0.0211 µM
# [5] = HPLM + 10% dialyzed FBS, 0.0632 µM
# [6] = HPLM + 10% dialyzed FBS, 0.19 µM
# [7] = HPLM + 10% dialyzed FBS, 0.569 µM
# [8] = HPLM + 10% dialyzed FBS, 1.71 µM
# [9] = HPLM + 10% dialyzed FBS, 5.12 µM
# [10] = HPLM + 10% dialyzed FBS, 15.4 µM
# [11] = HPLM + 10% dialyzed FBS, 46.1 µM
# [12] = RPMI 5 mM glucose + 10% FBS, 0.000781 µM
# [13] = RPMI 5 mM glucose + 10% FBS, 0.00234 µM
# [14] = RPMI 5 mM glucose + 10% FBS, 0.00702 µM
# [15] = RPMI 5 mM glucose + 10% FBS, 0.0211 µM
# [16] = RPMI 5 mM glucose + 10% FBS, 0.0632 µM
# [17] = RPMI 5 mM glucose + 10% FBS, 0.19 µM
# [18] = RPMI 5 mM glucose + 10% FBS, 0.569 µM
# [19] = RPMI 5 mM glucose + 10% FBS, 1.71 µM
# [20] = RPMI 5 mM glucose + 10% FBS, 5.12 µM
# [21] = RPMI 5 mM glucose + 10% FBS, 15.4 µM
# [22] = RPMI 5 mM glucose + 10% FBS, 46.1 µM
# [23] = RPMI 5 mM glucose + 10% dialyzed FBS, 0.000781 µM
# [24] = RPMI 5 mM glucose + 10% dialyzed FBS, 0.00234 µM
# [25] = RPMI 5 mM glucose + 10% dialyzed FBS, 0.00702 µM
# [26] = RPMI 5 mM glucose + 10% dialyzed FBS, 0.0211 µM
# [27] = RPMI 5 mM glucose + 10% dialyzed FBS, 0.0632 µM
# [28] = RPMI 5 mM glucose + 10% dialyzed FBS, 0.19 µM
# [29] = RPMI 5 mM glucose + 10% dialyzed FBS, 0.569 µM
# [30] = RPMI 5 mM glucose + 10% dialyzed FBS, 1.71 µM
# [31] = RPMI 5 mM glucose + 10% dialyzed FBS, 5.12 µM
# [32] = RPMI 5 mM glucose + 10% dialyzed FBS, 15.4 µM
# [33] = RPMI 5 mM glucose + 10% dialyzed FBS, 46.1 µM
SMILES,cell viability [1] [%],cell viability [2] [%],cell viability [3] [%],cell viability [4] [%],cell viability [5] [%],cell viability [6] [%],cell viability [7] [%],cell viability [8] [%],cell viability [9] [%],cell viability [10] [%],cell viability [11] [%],cell viability [12] [%],cell viability [13] [%],cell viability [14] [%],cell viability [15] [%],cell viability [16] [%],cell viability [17] [%],cell viability [18] [%],cell viability [19] [%],cell viability [20] [%],cell viability [21] [%],cell viability [22] [%],cell viability [23] [%],cell viability [24] [%],cell viability [25] [%],cell viability [26] [%],cell viability [27] [%],cell viability [28] [%],cell viability [29] [%],cell viability [30] [%],cell viability [31] [%],cell viability [32] [%],cell viability [33] [%]
CCOC(=O)N1c2ccc(C(F)(F)F)cc2[C@@H](N(Cc2cc(C(F)(F)F)cc(C(F)(F)F)c2)C(=O)OC)C[C@H]1CC,124,149,123,118,124,139,110,109,120,105,110,121,117,105,118,129,113,115,111,114,112,107,110,117,121,115,121,110,103,112,119,109,93.7
O=C(CCCCCCC(=O)Nc1ccc([C@H]2O[C@@H](CSc3nc(-c4ccccc4)c(-c4ccccc4)o3)C[C@@H](c3ccc(CO)cc3)O2)cc1)NO,,,,,,,,,,,,120,135,117,124,117,131,127,111,108,12.5,5.57,,,,,,,,,,,
Cc1nn(C)c(COc2ccc(N3CCN([S+](=O)([O-])N(C)C)CC3)cc2)c1-c1cccc2c(CCCOc3cccc4ccccc34)c(C(=O)O)n(CCN3CCOCC3)c12,96.9,107,121,122,124,108,137,101,25.9,36.8,32.1,100,110,105,110,112,105,118,111,25.2,108,22.8,90.6,112,110,116,122,111,117,107,109,119,91.8
C[N]1C=C(C2=CC=CC=C12)\C3=C(\C(=O)NC3=O)C4=C[N](C5CCN(CC5)CC6=NC=CC=C6)C7=C4C=CC=C7,115,115,110,116,133,116,133,131,129,120,140,100,118,110,107,113,110,109,101,105,129,120,102,113,110,113,119,116,118,116,134,138,113
C[C@H](CCC(=O)O)[C@H]1CCC2C3C[C@H](O)[C@@H]4C[C@H](O)CC[C@]4(C)C3CC[C@@]21C (some centres undefined),112,123,139,133,119,121,97.6,104,114,123,110,113,106,121,119,119,116,96.7,106,113,108,103,102,126,118,108,122,109,107,94.7,116,105,110
COC(=O)Nc1nc2cc(C(=O)c3ccc(F)cc3)ccc2[nH]1,103,113,102,104,102,103,84.7,54.9,32.9,52.2,40.3,107,98.1,91.4,95.3,101,97.5,98.6,83.8,34.8,83.8,83.9,99.3,103,94.1,107,89.3,93,90.9,65.3,31.9,74.1,72.9
CC(=O)N[C@@H]1[C@@H](NC(N)=N)\C=C(/O[C@H]1[C@H](O)[C@H](O)CO)C(O)=O,84.9,105,116,119,127,119,122,120,122,115,101,102,114,106,111,113,113,118,120,111,121,113,100,106,114,121,117,118,115,116,106,134,124
